Measured values taken from patent US8067619B2, “Coumarin derivatives as ion channel openers” (Janssen Pharmaceutica N.V., priority 2005, dated 2011).

target: T1, KATP channels (Homo sapiens, UniProt O60706+Q14654); test: Potassium Channel Assay (FLIPR membrane potential, TE671 cells); type: cell-based; conditions: TE671 human medulloblastoma cells, Membrane Potential Assay Dye, room temperature, hyperpolarization from KATP channel opening seen as decrease in fluorescent intensity
T1 construct: TE671 human medulloblastoma cells were obtained from ATCC; host or cells: TE671 human medulloblastoma cells
Description: TE671 human medulloblastoma cells were obtained from ATCC and grown in Dulbecco's modified Eagle's medium (DMEM) supplemented with 10% fetal bovine serum, 100 U/ml penicillin and 100 U/ml streptomycine.
The day before testing, the cells were plated in black 96-well plates at 50K/well. On the day of testing, the growth media was removed, then 100 μl of FLIPR buffer (20 mM HEPES, 120 mM NaCl, 2 mM KCl, 2 mM CaCl2, 1 mM MgCl2, 5 mM Glucose) and 100 μl of Membrane Potential Assay Dye (Molecular Devices) dissolved in FLIPR buffer were added to each well. The cells were incubated at room temperature for 15 to 30 min.
The effect of test compounds on KATP channels were evaluated on a fluorometric imaging plate reader (FLIPR, Molecular Devices) at room temperature. After a baseline period, 50 μl of 5× stock solution of test compound prepared in FLIPR buffer was added and fluorescent change was monitored for 3 minutes. After this reading, glyburide, a KATP channel blocker, was added to a final concentration of 5 μM to check the specificity of the test compound as a KATP channel openers. Hyperpolarization resulting from KATP channel opening was observed as a decrease in fluorescent intensity.

T1 sequence (O60706 1-1549 isoform O60706-2): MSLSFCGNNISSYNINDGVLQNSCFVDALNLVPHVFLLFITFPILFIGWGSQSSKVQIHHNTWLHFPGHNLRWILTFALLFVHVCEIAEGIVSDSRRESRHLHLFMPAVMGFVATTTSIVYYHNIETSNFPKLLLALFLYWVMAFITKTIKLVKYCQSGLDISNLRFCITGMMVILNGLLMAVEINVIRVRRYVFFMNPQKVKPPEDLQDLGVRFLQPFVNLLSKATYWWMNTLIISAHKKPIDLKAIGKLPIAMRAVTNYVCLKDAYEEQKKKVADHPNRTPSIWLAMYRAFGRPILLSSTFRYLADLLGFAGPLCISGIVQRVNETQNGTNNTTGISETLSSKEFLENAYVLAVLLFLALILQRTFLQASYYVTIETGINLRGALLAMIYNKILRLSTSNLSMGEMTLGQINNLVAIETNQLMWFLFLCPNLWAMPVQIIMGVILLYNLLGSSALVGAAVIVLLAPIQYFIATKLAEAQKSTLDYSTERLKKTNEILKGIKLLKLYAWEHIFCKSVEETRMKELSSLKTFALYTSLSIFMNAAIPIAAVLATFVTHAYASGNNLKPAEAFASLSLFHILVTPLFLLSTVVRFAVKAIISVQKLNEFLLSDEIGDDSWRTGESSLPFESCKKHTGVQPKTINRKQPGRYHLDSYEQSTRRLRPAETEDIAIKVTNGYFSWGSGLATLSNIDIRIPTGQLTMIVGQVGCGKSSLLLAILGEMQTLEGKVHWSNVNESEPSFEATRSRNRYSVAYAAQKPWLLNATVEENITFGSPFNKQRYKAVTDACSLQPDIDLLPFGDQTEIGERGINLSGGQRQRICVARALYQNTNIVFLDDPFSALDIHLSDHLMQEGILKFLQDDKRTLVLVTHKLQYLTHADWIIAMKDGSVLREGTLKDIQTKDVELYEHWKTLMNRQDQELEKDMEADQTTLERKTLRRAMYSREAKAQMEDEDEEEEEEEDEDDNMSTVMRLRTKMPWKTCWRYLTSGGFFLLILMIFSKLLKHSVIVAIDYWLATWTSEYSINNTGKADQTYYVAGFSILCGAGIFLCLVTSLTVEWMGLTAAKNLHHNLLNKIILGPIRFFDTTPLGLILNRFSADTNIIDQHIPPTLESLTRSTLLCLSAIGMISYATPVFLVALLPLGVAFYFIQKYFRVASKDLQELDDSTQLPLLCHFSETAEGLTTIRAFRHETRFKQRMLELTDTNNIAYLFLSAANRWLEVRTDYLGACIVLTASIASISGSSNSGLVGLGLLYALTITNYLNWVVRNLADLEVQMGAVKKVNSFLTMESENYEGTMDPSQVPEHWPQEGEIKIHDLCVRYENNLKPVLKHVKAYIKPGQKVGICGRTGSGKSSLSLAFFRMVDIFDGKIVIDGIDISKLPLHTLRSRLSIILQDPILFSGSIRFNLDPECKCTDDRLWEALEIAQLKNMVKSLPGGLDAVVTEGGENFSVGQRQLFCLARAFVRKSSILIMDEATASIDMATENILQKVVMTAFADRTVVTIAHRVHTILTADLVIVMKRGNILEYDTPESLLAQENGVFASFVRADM
T1 sequence (Q14654 whole entry): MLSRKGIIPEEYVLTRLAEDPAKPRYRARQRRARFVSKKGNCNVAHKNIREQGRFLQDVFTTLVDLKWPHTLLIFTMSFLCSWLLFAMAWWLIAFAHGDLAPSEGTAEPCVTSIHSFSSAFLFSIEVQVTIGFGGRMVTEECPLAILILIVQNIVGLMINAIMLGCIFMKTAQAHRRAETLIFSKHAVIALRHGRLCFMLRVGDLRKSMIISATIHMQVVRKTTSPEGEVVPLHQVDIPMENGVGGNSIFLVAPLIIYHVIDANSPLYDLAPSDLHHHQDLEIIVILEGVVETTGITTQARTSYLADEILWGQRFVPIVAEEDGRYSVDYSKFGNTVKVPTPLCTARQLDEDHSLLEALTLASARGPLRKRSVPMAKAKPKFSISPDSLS

EC50 [µM] | Structure (SMILES)
> 30 | N#Cc1ccc2c(CC(O)c3ccc(Cl)cc3Cl)cc(=O)oc2c1 (stereo not shown) [Compound 14, 4-[2-(2,4-Dichloro-phenyl)-2-hydroxy-ethyl]-2-oxo-2H-chromene-7-carbonitrile]
23.2 | N#Cc1ccc2c(CCO)c(-c3ccc(O)cc3O)c(=O)oc2c1 [Compound 8, 3-(2,4-Dihydroxy-phenyl)-4-(2-hydroxy-ethyl)-2-oxo-2H-chromene-7-carbonitrile]
8.76 | O=C(Cc1cc(=O)oc2cc(OS(=O)(=O)C(F)(F)F)ccc12)Nc1c(Cl)cc(Cl)cc1Cl [Compound 13, Trifluoro-methanesulfonic acid 2-oxo-4-[(2,4,6-trichloro-phenylcarbamoyl)-methyl]-2H-chromen-7-yl ester]
7.74 | N#Cc1ccc2c(CC(=O)Nc3cccc(Cl)c3)cc(=O)oc2c1 [Compound 18, N-(3-Chloro-phenyl)-2-(7-cyano-2-oxo-2H-chromen-4-yl)-acetamide]
6.58 | O=c1cc(CC(O)c2ccc(Cl)cc2Cl)c2ccc(OS(=O)(=O)C(F)(F)F)cc2o1 (stereo not shown) [Compound 12, Trifluoro-methanesulfonic acid 4-[2-(2,4-dichloro-phenyl)-2-hydroxy-ethyl]-2-oxo-2H-chromen-7-yl ester]
> 30 | N#Cc1ccc2oc(=O)cc(CC(O)c3ccc(Cl)cc3Cl)c2c1 (stereo not shown) [Compound 20, 4-[2-(2,4-Dichloro-phenyl)-2-hydroxy-ethyl]-2-oxo-2H-chromene-6-carbonitrile]
> 30 | COCCc1c(-c2ccc(OC)cc2OC)c(=O)oc2cc(C#N)ccc12 [Compound 6, 3-(2,4-Dimethoxy-phenyl)-4-(2-methoxy-ethyl)-2-oxo-2H-chromene-7-carbonitrile]
10.7 | N#Cc1ccc2c(CC(=O)Nc3cccc(Cl)c3Cl)cc(=O)oc2c1 [Compound 19, 2-(7-Cyano-2-oxo-2H-chromen-4-yl)-N-(2,3-dichloro-phenyl)-acetamide]
3.29 | C=Cc1c(-c2ccc(O)cc2O)c(=O)oc2cc(C#N)ccc12 [Compound 9, 3-(2,4-Dihydroxy-phenyl)-2-oxo-4-vinyl-2H-chromene-7-carbonitrile]
> 30 | N#Cc1ccc2oc(=O)cc(CC(=O)c3cccc(Cl)c3)c2c1 [Compound 21, 4-[2-(3-Chloro-phenyl)-2-oxo-ethyl]-2-oxo-2H-chromene-6-carbonitrile]
15.9 | N#Cc1ccc2c(CC(=O)c3ccc(Cl)cc3)cc(=O)oc2c1 [Compound 4, 4-[2-(4-Chloro-phenyl)-2-oxo-ethyl]-2-oxo-2H-chromene-7-carbonitrile]
9.55 | COCCc1c(-c2ccc(OC)cc2OC)c(=O)oc2cc(OS(=O)(=O)C(F)(F)F)ccc12 [Compound 2, Trifluoro-methanesulfonic acid 3-(2,4-dimethoxy-phenyl)-4-(2-methoxy-ethyl)-2-oxo-2H-chromen-7-yl ester]
13.9 | N#Cc1ccc2c(CC(=O)Nc3ccc(F)cc3F)cc(=O)oc2c1 [Compound 15, 2-(7-Cyano-2-oxo-2H-chromen-4-yl)-N-(2,4-difluoro-phenyl)-acetamide]
19.9 | O=C(Cc1cc(=O)oc2ccc(OS(=O)(=O)C(F)(F)F)cc12)c1cccc(Cl)c1 [Compound 22, Trifluoro-methanesulfonic acid 4-[2-(3-chloro-phenyl)-2-oxo-ethyl]-2-oxo-2H-chromen-6-yl ester]
19.5 | N#Cc1ccc2c(CC(=O)Nc3ccccc3Cl)cc(=O)oc2c1 [Compound 17, N-(2-Chloro-phenyl)-2-(7-cyano-2-oxo-2H-chromen-4-yl)-acetamide]
> 30 | C=Cc1c(-c2ccc(C#N)cc2O)c(=O)oc2cc(F)ccc12 [Compound 11, 44-(7-Fluoro-2-oxo-4-vinyl-2H-chromen-3-yl)-3-hydroxy-benzonitrile]
> 30 | Cc1c(C(=O)c2ccc(Cl)cc2)c(=O)oc2cc(C#N)ccc12 [Compound 3, 3-(4-Chloro-benzoyl)-4-methyl-2-oxo-2H-chromene-7-carbonitrile]
3.84 | N#Cc1ccc2c(CC(=O)Nc3ccccc3F)cc(=O)oc2c1 [Compound 16, 2-(7-Cyano-2-oxo-2H-chromen-4-yl)-N-(2-fluoro-phenyl)-acetamide]
19.5 | O=c1oc2cc(OS(=O)(=O)C(F)(F)F)ccc2c(CCO)c1-c1ccc(O)cc1O [Compound 7, Trifluoro-methanesulfonic acid 3-(2,4-dihydroxy-phenyl)-4-(2-hydroxy-ethyl)-2-oxo-2H-chromen-7-yl ester]
